This note sets out measurements from paper PMC11747586, “Synthesis and Investigation of Peptide–Drug Conjugates Comprising Camptothecin and a Human Protein‐Derived Cell‐Penetrating Peptide” (Chemical Biology & Drug Design, 2025).

Data set [1] in a line: Parallel artificial membrane permeability assay (PAMPA). Type of data set: in vitro ADME. To be noted: for Papp at 4 h, 4 μM: PAMPA. The procedure: FIGURE 4 (A) Membrane permeability and cellular uptake of PDCs, scaffold peptides, and CPT. Compounds were added to PAMPA wells (4 μM) and incubated for 4 h. Supernatant from apical and basolateral sides of the membrane were collected and analyzed using LC–MS. The amount in the combined soluble fractions was compared to the starting amount to determine % recovery, and the apparent permeability (Papp) was calculated as before (Sevin et al. [2013]). Data is expressed as mean ± SD from a single experiment with three technical replicates. (B) Internalization/cell membrane association of PDCs 12–14 and PDIP with HT144 cells. Cells were treated with PDIP or PDCs (4 μM) for 1 h, washed to remove extracellular compound, then extracted with 75% (v/v) MeCN in mQH2O (containing 1.75% (v/v) TFA), to recover soluble peptide or PDC from precipitated cell proteins. The relative amount of internalized peptide or PDC was determined by integrating area under the curve (AUC) for the [M + 6H]^6+ m/z peak (for the intact mass) using time of flight–mass spectrometry (see Figure S2). […] Data is expressed as mean ± SD from a single experiment with three technical replicates for each treatment and control and was analyzed with ANOVA (Tukey multiple comparisons; **p < 0.01, *p < 0.05). (C) Detection of intracellular CPT following 6 h treatment of HT144 cells with CPT and PDCs 12 and 14. […] Data is expressed as mean ± SD from a single experiment with three technical replicates for each treatment and was analyzed with ANOVA (Fisher multiple paired comparisons; **p < 0.01, *p < 0.05). TEXT PRINTED IN THE PICTURE: (A) PDIP: % recovered (soluble fractions): 94 | (A) 12: % recovered (soluble fractions): 58 | (A) 14: % recovered (soluble fractions): 33 | (A) 15: % recovered (soluble fractions): 40 | (A) c[A] PDIP: % recovered (soluble fractions): 34 | (A) CPT: % recovered (soluble fractions): 92 […]
For the first assay, the PDCs (12–15), scaffold peptides and CPT (4 μM) were added to the apical side of PAMPA monolayers and incubated for 4 h. […] PDIP, CPT, and PDCs 12 and 14 had high permeability (Papp ≥ 2 × 10^−6 cm/s), highlighting that these PDCs maintain membrane permeability with the CPT cargo attached. […] Reliable permeability data were not obtained for PDC 13 because of poor recovery of the PDC from soluble fractions, and degradation during the 4 h PAMPA experiment. […] Instability of the carbonate linkage within CPT conjugates containing a dipeptide linker has been previously reported (Walker et al. [2002]), highlighting the potential incompatibility of this drug–linker combination for CPT PDCs. Considering the observed degradation of 13 in the cell‐free assay, it is also possible that extracellular degradation occurred during the cytotoxicity assays.
Parallel artificial membrane permeability assay (PAMPA)
PAMPA was performed according to the manufacturer instructions for the BD Gentest pre-coated PAMPA plate system (BD Biosciences), as previously described.16 Briefly, peptides and PDCs (4 μM in PBS) were added to the apical side of PAMPA wells and incubated for 4 h at 37 °C, 5% CO2 with 95% humidity. Soluble fractions were recovered from the apical and basolateral sides, and compound concentration was quantified using a Shimadzu LCMS-2020 instrument with a Phenomenex 5 µm C18 / 300 Å / 150 x 2 mm LC column. Data was collected from three technical replicates for each compound. The % recovery was determined from (combined from apical and basolateral fractions) relative to the starting concentration:
Recovery rate : R (%) = (C஺ ×V஺ +C஻ ×V஻ )× 100 where CA and CB are the apical and basolateral concentrations (µM), VA and VB are the apical and basolateral volumes (mL), and C0 is the initial concentration (µM).
The apparent permeability coefficient (Papp) was calculated using the following equations17 and where A is the membrane surface area (cm2): […]

A short description of data set [2]: cells. As to the method:
(§1) Cell death was measured using resazurin, with 0.1% (v/v) Triton X‐100 as a control for 100% cell death. Data points are expressed as mean ± SD for at least two biological replicates. Dose response curves were fitted using [inhibitor] versus response with variable slope, Graphpad Prism v10. […] RBC lysis was determined by measuring released hemoglobin, with 0.1% (v/v) Triton X‐100 as a control for 100% cell lysis. Melittin was included as a membranolytic control. Data points are expressed as mean ± SD for two technical replicates. Dose response curves were fitted using [inhibitor] versus response with variable slope, Graphpad Prism v10. […] CC50 values are expressed as mean (SEM).
(§2) Cell death was measured using resazurin, with 0.1% (v/v) Triton X-100 as a control for 100% cell death. Data points are expressed as mean ± SD for at least two biological replicates. CC50 values are expressed as mean (SEM). Note: CPT-dipeptide-PDIP was not included in this study. c[A]PDIP is a desulfurized variant of cPDIP 2 (see Table S1) to prevent the presence of free thiol during assays. […]
(§3) HaCaT cells were grown in DMEM medium and HT144 cells were grown in RPMI medium supplemented with 2 mM L-glutamine and 10 mM sodium pyruvate. Media were supplemented with 10% (v/v) fetal bovine serum, 100 units/mL of penicillin and […] of streptomycin. Flasks of cultured cells were maintained in a humidified incubator (37 °C, 5% CO2) and passaged every 2–3 days to maintain cultures between 20–90% confluence. Cell line identity was verified by comparing […]
(§4) STR profiles of the cell lines against database entries from the DSMZ-German collection of microorganisms and cell cultures, GmBH https://celldive.dsmz.de/str/browse.
(§5) Toxicity to the HT144 and HaCaT cell lines was tested following peptide treatment by measuring the metabolism of resazurin into fluorescent resorufin. The assays were performed with 5000 cells/well (96-well plate) in serum free media. Cells were incubated with serially diluted peptides, PDCs or […]

Data set [3] deals with HT144 (melanoma) cells. The data set can be described thus: cells. The following applies: 72 h, concentration range 16 nM—2 μM. As to the method: as §1, §2, §3, §4, §5
Data set [4] can be described thus: Cytotoxicity (resazurin) against cultured HaCaT noncancerous cells. As to the method: as §1, with “(SEM). […]” for “(SEM).”
as §3, §4
(§6) Toxicity to the HT144 and HaCaT cell lines was tested following peptide treatment by measuring the metabolism of resazurin into fluorescent resorufin. The assays were performed with 5000 cells/well (96-well plate) in serum free media. Cells were incubated with serially diluted peptides, PDCs or drugs for 72 h or 24 h (37 °C, 5% CO2). PBS and 0.1% (v/v) Triton X-100 were included as controls for 0% and 100% toxicity. Resazurin was added at 0.02% (w/v) final concentration 2 h prior to the assay end point. Fluorescence (λex = 560 nm, λem = 585 nm) was measured using a Tecan infinite M1000Pro multiplate reader. Percentage cytotoxicity was calculated relative to 0% and 100% controls.
(§7) Dose-response curves were fitted and CC50 values were determined using [inhibitor] vs response with four parameters with the top constrained to 100% (GraphPad Prism version 10.0.2). Data was collected as three biological replicates, with experiments conducted on different days.
(§8) Red blood cell (RBC) lysis
(§9) Human RBCs and serum were obtained from healthy volunteers via the Red Cross Lifeblood, Brisbane, Australia. RBCs were washed three times with PBS and stored in culture medium (RPMI
On the technique in general: Alamar Blue is a resazurin reagent that responds to reducing activity.

For data set [5], the system named is HaCaT (noncancerous) cells. The data set is described as above. The following applies: read-out: CC50 HaCaT; 72 h incubation, resazurin; mean (SEM). As to the method:
as §1, with “(SEM). […]” for “(SEM).”
as §3, §4, §6, §7, §8, §9

Like-named read-outs stand apart in the source and are kept apart here. Residues, ends and D or L forms follow the SMILES beside them.

By Papp is commonly meant a coefficient for how fast a substance crosses the barrier. One may read the CC50 as the concentration at which the toxic effect on the cells reaches its halfway point.

For the molecule `CC[C@H](C)[C@@H]1NC(=O)[C@H](CCCCN)NC(=O)[C@H](CCCCN)NC(=O)[C@H](Cc2ccc(O)cc2)NC(=O)[C@H](CC(C)C)NC(=O)[C@@H]2CCCN2C(=O)CNC(=O)CNC(=O)[C@@H](NC(=O)CN)CSSC[C@@H](C(=O)N[C@@H](CCC(=O)O)C(=O)N[C@@H](CO)C(N)=O)NC(=O)[C@H](CC(C)C)NC(=O)[C@H](CCCCN)NC(=O)[C@H](CCCCN)NC(=O)[C@H]([C@@H](C)CC)NC(=O)[C@H]([C@@H](C)CC)NC(=O)[C@H](CCCCN)NC(=O)[C@H](CCCCN)NC(=O)[C@H](Cc2ccc(O)cc2)NC(=O)[C@H](CC(C)C)NC(=O)[C@@H]2CCCN2C(=O)[C@H](C)NC(=O)CNC(=O)CNC(=O)[C@H](Cn2cc(CCCC(=O)O[C@]3(CC)C(=O)OCc4c3cc3n(c4=O)Cc4cc5ccccc5nc4-3)nn2)NC(=O)CNC(=O)CNC(=O)[C@H](CO)NC(=O)[C@H](CCC(=O)O)NC(=O)[C@H](CC(C)C)NC(=O)[C@H](CC(C)C)NC(=O)[C@H](CCCCN)NC(=O)[C@H](CCCCN)NC(=O)[C@H]([C@@H](C)CC)NC1=O` [PDC 12], the “% recovered (soluble fractions)” value in data set [1] (4 μM, 4 h, combined apical and basolateral fractions) turned out to be 58%. Moreover, the Papp at 4 h, 4 μM in data set [1] (4 μM, 4 h, apical to basolateral, read-out: apparent permeability (Papp)) was not below 2 ×10⁻⁶ cm/s. The half-maximal cytotoxic concentration (CC50) in data set [2] and in data set [4] was more than 2 µM throughout. The “cytotoxic activity against HT144” value in data set [3] is recorded as “no activity”.

On to `CC[C@H](C)[C@@H]1NC(=O)[C@H](CCCCN)NC(=O)[C@H](CCCCN)NC(=O)[C@H](Cc2ccc(O)cc2)NC(=O)[C@H](CC(C)C)NC(=O)[C@@H]2CCCN2C(=O)[C@H](C)NC(=O)CNC(=O)CNC(=O)[C@H](CO)NC(=O)CNC(=O)CNC(=O)[C@H](CO)NC(=O)[C@H](CCC(=O)O)NC(=O)[C@H](CC(C)C)NC(=O)[C@H](CC(C)C)NC(=O)[C@H](CCCCN)NC(=O)[C@H](CCCCN)NC(=O)[C@H]([C@@H](C)CC)NC(=O)[C@H]([C@@H](C)CC)NC(=O)[C@H](CCCCN)NC(=O)[C@H](CCCCN)NC(=O)[C@H](Cc2ccc(O)cc2)NC(=O)[C@H](CC(C)C)NC(=O)[C@@H]2CCCN2C(=O)[C@H](C)NC(=O)CNC(=O)CNC(=O)[C@H](C)NC(=O)CNC(=O)CNC(=O)[C@H](CO)NC(=O)[C@H](CCC(=O)O)NC(=O)[C@H](CC(C)C)NC(=O)[C@H](CC(C)C)NC(=O)[C@H](CCCCN)NC(=O)[C@H](CCCCN)NC(=O)[C@H]([C@@H](C)CC)NC1=O` [c[A]PDIP] (cyclo(AGGAPLYKKIIKKLLESGGSGGAPLYKKIIKKLLESGG)), for which, in data set [1], the apparent permeability coefficient (Papp) at 4 h, 4 μM is approximately 0.4 ×10⁻⁶ cm/s. Moreover, the half-maximal cytotoxic concentration (CC50) in data set [2] was 9.35 µM; in data set [4], approximately 32 µM; in data set [5], not below 32 µM.
